Assay results as given in publication PMC4018175 (Journal of Medicinal Chemistry, 2014).
Structures can show the parent of a compound that is named as a salt.

Assays:
[1] = biological target: T1, P2Y6R (Homo sapiens, UniProt Q15077); assay: Fluorescent ligand binding of 28 by flow cytometry; details: 100 nM for 30 min at 37 °C in the presence of 125 (100 μM)
[2] = biological target: T1, P2Y6R; assay: Fluorescence microscopy of P2Y6R-expressing 1321N1 astrocytoma cells; type: cell-based; details: 1 μM, 30 min at 37 °C, in presence and absence of 118 (10 μM)

T1 sequence (Q15077 whole entry): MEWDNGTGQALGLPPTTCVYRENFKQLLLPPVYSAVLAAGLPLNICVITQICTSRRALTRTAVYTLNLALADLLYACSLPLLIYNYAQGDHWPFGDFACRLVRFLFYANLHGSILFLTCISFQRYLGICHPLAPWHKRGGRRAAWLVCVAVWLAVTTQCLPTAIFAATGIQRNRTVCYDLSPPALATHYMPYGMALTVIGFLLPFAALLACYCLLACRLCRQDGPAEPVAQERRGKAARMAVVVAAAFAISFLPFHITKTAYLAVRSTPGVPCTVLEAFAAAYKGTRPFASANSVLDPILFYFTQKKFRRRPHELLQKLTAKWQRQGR

- Cell labeling by fluorescent ligand (FCM) [1]: significant cell labeling
Compound: O=C(CCCCCNC(=O)COc1ccc(/C=C/c2ccc3n2[B-](F)(F)[N+]2=C(c4cccs4)C=CC2=C3)cc1)NCCCn1cc(CCNC(=O)COc2ccc(CCCO/N=c3/ccn([C@@H]4O[C@H](COP(=O)(O)OP(=O)(O)OP(=O)(O)O)[C@@H](O)[C@H]4O)c(=O)[nH]3)cc2)nn1 [Compound 28, N^4-(3-((4-O-CH2CONH-(CH2)2(BODIPY-1H-1,2,3-Triazol-4-yl))phenyl)propyloxy)cytidine-5′-triphosphate Triethylammonium Salt]
- Labeling of cells expressing the receptor (fluorescence microscopy) [2]: specifically labeled cells expressing the receptor
